Assay results published in US11813353B2, “Pharmaceutical compositions for the nasal administration of a cobalamin compound” (INNOTESTO BV, priority 2020, dated 2023).
Like-named read-outs stand apart in the source and are kept apart here.

Assays:
[1] = 6 Crohn's disease patients, 1500 μg nasal, cited from earlier work
[2] = Nasal absorption of hydroxocobalamin nasal spray in healthy volunteers; format: in vivo, human
Description: Healthy volunteers received a dose of 500 μg hydroxocobalamin in 50 μl nasal spray containing as main constituents hydroxocobalamin, mannitol 10% w/v, propylene glycol 10% v/v and water (total dose 500 μg hydroxocobalamin HCl) using an Aptar VP7 spray pump. The following increases of hydroxocobalamin blood levels (increase from C t=0 to Cmax after 30 minutes) were measured: […]

[3] = geriatric patients, cited from earlier work
nasal epithelial cells = conditions: 1% concentration; cited from earlier work
[4] = about 0.1% (w/w); versus benzalkonium chloride; cited from earlier work
[5] = healthy volunteers, 500 μg nasal spray

C/C1=C2/[N-][C@H]([C@H](CC(N)=O)[C@@]2(C)CCC(=O)NC[C@@H](C)OP(=O)([O-])O[C@H]2[C@@H](O)[C@@H](n3cnc4cc(C)c(C)cc43)O[C@@H]2CO)[C@]2(C)N=C(/C(C)=C3N=C(/C=C4N=C1[C@@H](CCC(N)=O)C\4(C)C)[C@@H](CCC(N)=O)[C@]\3(C)CC(N)=O)[C@@H](CCC(N)=O)[C@]2(C)CC(N)=O.[Co+3].[OH-] [hydroxocobalamin]
mean increase in vitamin B12 level ([1]; three days, SD 645 pg/ml): 1520 pg/mL
CV (coefficient of variation) of mean increase [1]: 42.5%
irritation in the nose [2, 5]: None of the volunteers
presence of red crustae in the nose afterwards [2, 5]: None of the volunteers
CV (coefficient of variation) of mean increase ([2]; healthy volunteers, 500 μg nasal spray, mannitol 10% w/v, propylene glycol 10% v/v): 23%
vitamin B12 Cmax levels ([2]; healthy volunteers, 500 μg nasal spray, exceeded in none of the volunteers): ≤ 1500 pg/mL
Mean increase per 500 μg Hydroxocobalamin ([2]; healthy volunteers, nasal spray, mannitol 10% w/v, propylene glycol 10% v/v, water, SD=127 pg/ml): 549 pg/mL
increase of hydroxocobalamin blood levels, alternative composition ([2]; nasal spray with mannitol 5% w/v, propylene glycol 15% v/v and water): Comparable results
Cmax levels (±SD) after nasal administration ([3]; dose of 750 μg): 2.7 ± 1.2 ng/mL
Cmax levels (±SD) after nasal administration ([3]; dose): 4.7 ± 3.4 ng/mL

OC[C@@H](O)[C@@H](O)[C@H](O)[C@H](O)CO [mannitol]
cellular damage (nasal epithelial cells): no cellular damage

C/C=C/C=C/C(=O)[O-].[K+] [potassium sorbate]
safety as a preservative in nasal products [4]: much more safe than benzalkonium chloride
